Reference: patent publication US6589993B2, “Treating vancomycin-intermediates and multiresistant staphylococci infection with thiamphenicol or a salt thereof” (Zambon Group S.p.A., priority 2000, dated 2003)
In brackets after ≈: the same amount, converted by molar mass. Like-named read-outs stand apart in the source and are kept apart here. Each block holds one compound with its values, some of them ahead of it.

Columns and labels:
[1] = system: S. aureus vancomycin-intermediates (VISA) Met-R strains; assay: MIC determination (NCCLS broth microdilution), VISA Met-R strains; assay type: cell-based, Staphylococcus aureus; settings: for MIC: antibiotype Oxa, Cip, Clin, Ery
Outline: (§1)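 NCCLS broth microdilution in cation-supplemented Mueller-Hinton broth, final inoculum 5×10^5 from exponential-phase bacteria; 2% NaCl added for methicillin testing. MIC taken as lowest concentration preventing visible growth after 18–24 h at 37 °C, with S. aureus ATCC 29213 as QC strain.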

[2] = system: S. aureus Met-R multiresistant strains; assay: MIC determination (NCCLS broth microdilution), methicillin-resistant multiresistant S. aureus strains; assay type: cell-based, Staphylococcus aureus; settings: for MIC / MIC50 / MIC90: Staphylococcus aureus; for MIC: antibiotype Oxa, Ery, read-out: MIC; for MIC50: read-out: MIC 50%; for MIC90: read-out: MIC 90%
Outline: as §1

Staphylococci = settings: toward strains of Staphylococci; Kayser et al. 1974; cited from earlier work
[3] = Staphylococcus aureus, Strain 51 VISA, read-out: MIC
[4] = Strain 30, Cip, Clin, Gm, SXT, Dox
[5] = Strain 32, Cip, Clin, Gm, SXT, Rif
[6] = Strain 44, Cip, Clin, Gm, Rif, Dox
[7] = Strain 45, Cip, Clin, Gm, Rif, Dox, Fos
[8] = Strain 50, Cip, Clin, Gm, Rif, Dox

MIC [1, 3]: 16 µg/mL (≈ 44.9 µM)
MIC ([1]; Strain 52 VISA): 16 µg/mL (≈ 44.9 µM)
MIC Range ([1]; VISA (2) Met-R): 16 µg/mL (≈ 44.9 µM)
MIC ([2]; Strain 1, Cip, Clin, Gm): 8 µg/mL (≈ 22.5 µM)
MIC ([2]; Strain 2, Clin, Fos): > 64 µg/mL
MIC ([2]; Strain 3, Cip, Clin, Gm): 16 µg/mL (≈ 44.9 µM)
MIC ([2]; Strain 4, Cip, Gm): 8 µg/mL (≈ 22.5 µM)
MIC ([2]; Strain 5, Cip, Clin): > 64 µg/mL
MIC ([2]; Strain 6, Clin, Gm): > 64 µg/mL
MIC ([2]; Strain 7, Cip, Gm): 16 µg/mL (≈ 44.9 µM)
MIC ([2]; Strain 8, Cip, Clin): > 64 µg/mL
MIC ([2]; Strain 9, Cip, Clin, Gm): 8 µg/mL (≈ 22.5 µM)
MIC ([2]; Strain 10, Cip, Clin, Gm): 4 µg/mL (≈ 11.2 µM)
MIC ([2]; Strain 11, Clin, Rif): > 64 µg/mL
MIC ([2]; Strain 12, Cip, Clin): > 64 µg/mL
MIC ([2]; Strain 13, Cip, Clin): 16 µg/mL (≈ 44.9 µM)
MIC ([2]; Strain 14, Clin, Cip): 16 µg/mL (≈ 44.9 µM)
MIC ([2]; Strain 15, Cip, Clin, Gm): 16 µg/mL (≈ 44.9 µM)
MIC ([2]; Strain 16, Cip, Clin): 8 µg/mL (≈ 22.5 µM)
MIC ([2]; Strain 17, Cip, Clin): 16 µg/mL (≈ 44.9 µM)
MIC ([2]; Strain 18, Cip, Clin, Gm): > 64 µg/mL
MIC ([2]; Strain 19, Cip, Clin, Gm): 16 µg/mL (≈ 44.9 µM)
MIC ([2]; Strain 20, Cip, Clin, Gm): > 64 µg/mL
MIC ([2]; Strain 21, Cip, Clin, Gm): > 64 µg/mL
MIC ([2]; Strain 22, Cip, Clin): 16 µg/mL (≈ 44.9 µM)
MIC ([2]; Strain 23, Cip, Clin, Gm): > 64 µg/mL
MIC ([2]; Strain 24, Cip, Clin, Gm): > 64 µg/mL
MIC ([2]; Strain 25, Cip, Clin, Gm): 16 µg/mL (≈ 44.9 µM)
MIC ([2]; Strain 26, Cip, Clin, Fos, Gm): 16 µg/mL (≈ 44.9 µM)
MIC ([2]; Strain 27, Cip, Clin, Fos, Gm): 16 µg/mL (≈ 44.9 µM)
MIC ([2]; Strain 28, Cip, Clin, Gm): > 64 µg/mL
MIC ([2]; Strain 29, Clin, Fos): 16 µg/mL (≈ 44.9 µM)
MIC [2, 4]: 16 µg/mL (≈ 44.9 µM)
MIC ([2]; Strain 31, Cip, Clin, Fox, Gm): 16 µg/mL (≈ 44.9 µM)
MIC [2, 5]: > 64 µg/mL
MIC ([2]; Strain 33, Cip, Clin, Gm): > 64 µg/mL
MIC ([2]; Strain 34, Cip, Clin, Gm): > 64 µg/mL
MIC ([2]; Strain 35, Cip, Clin, Gm): 16 µg/mL (≈ 44.9 µM)
MIC ([2]; Strain 36, Cip, Clin, Fos): 16 µg/mL (≈ 44.9 µM)
MIC ([2]; Strain 37, Cip, Clin, Fos, Gm): 16 µg/mL (≈ 44.9 µM)
MIC ([2]; Strain 38, Cip, Gm): 8 µg/mL (≈ 22.5 µM)
MIC ([2]; Strain 39, Cip, Clin, Fos, Gm): 16 µg/mL (≈ 44.9 µM)
MIC ([2]; Strain 40, Cip, Clin, Gm): 16 µg/mL (≈ 44.9 µM)
MIC ([2]; Strain 41, Cip, Clin): 16 µg/mL (≈ 44.9 µM)
MIC ([2]; Strain 42, Cip, Clin, Gm): 8 µg/mL (≈ 22.5 µM)
MIC ([2]; Strain 43, Cip, Clin, Gm): 16 µg/mL (≈ 44.9 µM)
MIC [2, 6]: 16 µg/mL (≈ 44.9 µM)
MIC [2, 7]: 16 µg/mL (≈ 44.9 µM)
MIC ([2]; Strain 46, Clin, Fos): 16 µg/mL (≈ 44.9 µM)
MIC ([2]; Strain 47, Cip, Clin, Gm): 8 µg/mL (≈ 22.5 µM)
MIC ([2]; Strain 48, Cip, Clin): > 64 µg/mL
MIC ([2]; Strain 49, Cip, Gm): 16 µg/mL (≈ 44.9 µM)
MIC [2, 8]: > 64 µg/mL
MIC50 ([2]; S. aureus (50) Met-R): 16 µg/mL (≈ 44.9 µM)
MIC90 ([2]; S. aureus (50) Met-R): > 64 µg/mL
activity (MIC) compared with cloramphenicol ([2]; VISA and multiresistant Staphylococcus aureus strains, in vitro): comparable to that as of cloramphenicol
SMILES: CS(=O)(=O)c1ccc([C@@H](O)[C@@H](CO)NC(=O)C(Cl)Cl)cc1 [Thiamphenicol, thiamphenicol]
% susceptible at breakpoint ([1]; VISA (2) Met-R, NCCLS (1999) breakpoints): 100%
% susceptible at breakpoint ([2]; S. aureus (50) Met-R, NCCLS (1999) breakpoints): 66%
in vitro activity relative to chloramphenicol (times less active) (Staphylococci): 2 to 4 times

MIC [1, 3]: > 64 µg/mL
MIC ([1]; Strain 52 VISA): >64 µg/mL
MIC Range ([1]; VISA (2) Met-R): >64 µg/mL
MIC ([2]; Strain 1, Cip, Clin, Gm): > 64 µg/mL
MIC ([2]; Strain 2, Clin, Fos): > 64 µg/mL
MIC ([2]; Strain 3, Cip, Clin, Gm): > 64 µg/mL
MIC ([2]; Strain 4, Cip, Gm): > 64 µg/mL
MIC ([2]; Strain 5, Cip, Clin): > 64 µg/mL
MIC ([2]; Strain 6, Clin, Gm): > 64 µg/mL
MIC ([2]; Strain 7, Cip, Gm): > 64 µg/mL
MIC ([2]; Strain 8, Cip, Clin): > 64 µg/mL
MIC ([2]; Strain 9, Cip, Clin, Gm): > 64 µg/mL
MIC ([2]; Strain 10, Cip, Clin, Gm): > 64 µg/mL
MIC ([2]; Strain 11, Clin, Rif): > 64 µg/mL
MIC ([2]; Strain 12, Cip, Clin): > 64 µg/mL
MIC ([2]; Strain 13, Cip, Clin): > 64 µg/mL
MIC ([2]; Strain 14, Clin, Cip): > 64 µg/mL
MIC ([2]; Strain 15, Cip, Clin, Gm): > 64 µg/mL
MIC ([2]; Strain 16, Cip, Clin): > 64 µg/mL
MIC ([2]; Strain 17, Cip, Clin): > 64 µg/mL
MIC ([2]; Strain 18, Cip, Clin, Gm): > 64 µg/mL
MIC ([2]; Strain 19, Cip, Clin, Gm): > 64 µg/mL
MIC ([2]; Strain 20, Cip, Clin, Gm): > 64 µg/mL
MIC ([2]; Strain 21, Cip, Clin, Gm): > 64 µg/mL
MIC ([2]; Strain 22, Cip, Clin): > 64 µg/mL
MIC ([2]; Strain 23, Cip, Clin, Gm): > 64 µg/mL
MIC ([2]; Strain 24, Cip, Clin, Gm): > 64 µg/mL
MIC ([2]; Strain 25, Cip, Clin, Gm): > 64 µg/mL
MIC ([2]; Strain 26, Cip, Clin, Fos, Gm): > 64 µg/mL
MIC ([2]; Strain 27, Cip, Clin, Fos, Gm): > 64 µg/mL
MIC ([2]; Strain 28, Cip, Clin, Gm): > 64 µg/mL
MIC ([2]; Strain 29, Clin, Fos): > 64 µg/mL
MIC [2, 4]: > 64 µg/mL
MIC ([2]; Strain 31, Cip, Clin, Fox, Gm): > 64 µg/mL
MIC [2, 5]: > 64 µg/mL
MIC ([2]; Strain 33, Cip, Clin, Gm): > 64 µg/mL
MIC ([2]; Strain 34, Cip, Clin, Gm): > 64 µg/mL
MIC ([2]; Strain 35, Cip, Clin, Gm): > 64 µg/mL
MIC ([2]; Strain 36, Cip, Clin, Fos): > 64 µg/mL
MIC ([2]; Strain 37, Cip, Clin, Fos, Gm): 64 µg/mL (≈ 87.2 µM)
MIC ([2]; Strain 38, Cip, Gm): > 64 µg/mL
MIC ([2]; Strain 39, Cip, Clin, Fos, Gm): 64 µg/mL (≈ 87.2 µM)
MIC ([2]; Strain 40, Cip, Clin, Gm): > 64 µg/mL
MIC ([2]; Strain 41, Cip, Clin): > 64 µg/mL
MIC ([2]; Strain 42, Cip, Clin, Gm): > 64 µg/mL
MIC ([2]; Strain 43, Cip, Clin, Gm): > 64 µg/mL
MIC [2, 6]: > 64 µg/mL
MIC [2, 7]: > 64 µg/mL
MIC ([2]; Strain 46, Clin, Fos): > 64 µg/mL
MIC ([2]; Strain 47, Cip, Clin, Gm): > 64 µg/mL
MIC ([2]; Strain 48, Cip, Clin): > 64 µg/mL
MIC ([2]; Strain 49, Cip, Gm): > 64 µg/mL
MIC [2, 8]: > 64 µg/mL
MIC50 ([2]; S. aureus (50) Met-R): > 64 µg/mL
MIC90 ([2]; S. aureus (50) Met-R): > 64 µg/mL
SMILES: CC[C@H]1OC(=O)[C@H](C)[C@@H](O[C@H]2C[C@@](C)(OC)[C@@H](O)[C@H](C)O2)[C@H](C)[C@@H](O[C@@H]2O[C@H](C)C[C@H](N(C)C)[C@H]2O)[C@](C)(O)C[C@@H](C)C(=O)[C@H](C)[C@@H](O)[C@]1(C)O [Erythromycin, erythromycin]
